Measured values: US10351509B2, “Fenfluramine compositions and methods of preparing the same” (priority 2015, dated 2019)
Where two headings read alike, the source gives them in different places. Marks after values point to notes of the source that are not given here.

Columns and labels:
[1] = Solubility in organic solvents; details: 25 °C, organic solvent or mixture
[2] = Holding at approximately 170° C., analysis by XRPD, DSC and 1H NMR; assay type: physicochemical; details: held at approximately 170° C. for several hours
Method: Holding Fenfluramine HCl at approximately 170° C. for several hours causes a melt and evaporation event to take place with recombination and cooling to provide a white solid.

Solution pH (water) = assay type: physicochemical
[3] = for Parent remaining: 168 h
[4] = Hygroscopicity by Dynamic Vapor Sorption (DVS); assay type: physicochemical
[5] = pKa (water) of drug substance
[6] = Stability analysis of the salt (Form 1) under temperature/humidity and photostability conditions; assay type: physicochemical; details: one week at 40° C./0% RH, three weeks at 40° C./75% RH, and photostability conditions
Excerpt: Fenfluramine HCl is developed as a single polymorph Form 1. A polymorphism and pre-formulation study has been conducted. Under a wide range of solvents and conditions crystalline material is produced of the same polymorph Form 1 based on a well-defined XRPD pattern and a consistent reproducible endotherm by DSC analysis. A summary of the chemophysical properties of Fenfluramine HCl from this study is provided below. Tabulated data includes example diffractograms, DSCs, and micrographs.

Solid stability by HPLC = assay type: physicochemical; details: 8 weeks at 40° C., 60° C. and 80° C.; 7 days at 150° C.; all conditions

Structure (SMILES): CCNC(C)Cc1cccc(C(F)(F)F)c1.Cl (racemic) [Fenfluramine HCl, N-ethyl-α-methyl-3-(trifluoromethyl)-benzeneethanamine hydrochloride (1:1)]
- solubility ([1]; dichloromethane): 30 to 35 mg/mL
- solubility ([1]; ethanol): 150 mg/mL
- solubility ([1]; ethyl acetate, tetrahydrofuran, toluene, acetonitrile): 1 to 5 mg/mL
- Change after melt and evaporation event (XRPD, DSC, 1H NMR) [2]: no change in chemical or physical form, purity, or dissociation
- Solution pH (water) (Solution pH (water)): 6.69
- Parent remaining after degradation ([3]; 24 h): 94.42%
- Parent remaining [3]: 99.90 parent area %
- Parent remaining ([3]; buffer): 99.73 parent area %
- solubility (Aqueous solubility; 0.9% NaCl in water, 25 °C, saline or isotonic): 23 mg/mL
- solubility (Aqueous solubility; pH 1.73 buffer, 25 °C, pH 1.73, simulated gastric fluid): 25.3 mg/mL
- solubility (Aqueous solubility; pH 1.73 buffer, 37 °C, pH 1.73, simulated gastric fluid): 53.7 mg/mL
- solubility (Aqueous solubility; pH 3.43 buffer, 25 °C, pH 3.43, aqueous buffer): 29.5 mg/mL
- solubility (Aqueous solubility; pH 3.43 buffer, 37 °C, pH 3.43, aqueous buffer): 62 mg/mL
- solubility (Aqueous solubility; pH 6.41 buffer, 25 °C, pH 6.41, aqueous buffer): 37.4 mg/mL
- solubility (Aqueous solubility; pH 6.41 buffer, 37 °C, pH 6.41, aqueous buffer): 95.6 mg/mL
- solubility (Aqueous solubility; water, 25 °C, pH 6.69, water): 54.1 mg/mL
- solubility (Aqueous solubility; water, 37 °C, pH 6.69, water): 71.2 mg/mL
- Hygroscopicity (Dynamic Vapor Sorption (DVS)) ([4]; @30% RH): @30% RH: ~0.05%
- Hygroscopicity (Dynamic Vapor Sorption (DVS)) ([4]; @60% RH): @60% RH: ~0.07%
- Hygroscopicity (Dynamic Vapor Sorption (DVS)) ([4]; @90% RH): @90% RH: ~0.20%^a)
- pKa [5]: 10.2 to 10.4
- Stability of the salt: form and new impurities at 0.1% threshold [6]: input Form 1 has been maintained with no new impurities observed at 0.1% threshold
- Solid Stability: new impurities >0.1% by HPLC (Solid stability by HPLC): 150 °C All conditions, no new impurities >0.1% by
